pIC50: −log10 of the molar value. Where two headings read alike, the source gives them in different places.
Tested on: calcium channel (e.g., L-type, N-type, etc.) current
Test: HEK assay: whole-cell voltage clamp in transiently transfected HEK-293T/17 cells
Format: cell-based
Conditions: patch clamp, holding potential −100 mV, steps to about +10 mV
Description: HEK-293T/17 cells are transiently transfected in a similar manner as described in FuGENE 6 Package Insert Version 7, April 2002, Roche Applied Science, Indianapolis, Ind. The cells are plated at 2.5×10^5 cells in 2 mL in a 6-well plate in incubator for one night and achieve a 30 40% confluence. In a small sterile tube, add sufficient serum-free medium as diluent for FuGENE Transfection Reagent (Roche Applied Science, Indianapolis, Ind.), to a total volume of 100 μL. Add 3 μL of FuGENE 6 Reagent directly into this medium. The mixture is tapped gently to mix. 2 μg of DNA solution (0.8-2.0 μg/μL) is added to the prediluted FuGENE 6 Reagent from above. The DNA/Fugene 6 mixture is gently pipeted to mix the contents and incubated for about 15 minutes at room temperature. The complex mixture is then added to the HEK-293T/17 cells, distributing it around the well, and swirled to ensure even dispersal. The cells are returned to the incubator for 24 hrs. The transfected cells are then replated at density 2.5×10^5 in a 35 mm dish with 5 glass coverslips and grow in low serum(1%) media for 24 hrs. Coverslips with isolated cells are then transferred into chamber and calcium channel ([…].) current or other currents for counter screening are recorded from the transiently transfected HEK-293T/17 cells. The whole-cell voltage clamp configuration of the patch clamp technique is employed to evaluate voltage-dependent calcium currents essentially as described by Thompson and Wong (1991) J. Physiol., 439: 671-689. […] Table 3 contains IC50's for representative compounds.

| SMILES | pIC50 | pIC50 (read-out: IC50) |
| --- | --- | --- |
| COc1ccccc1-c1nc(CCN(C)c2ccc(F)cc2)cn1-c1ccc(Cl)cc1 [Compound 1] | 7.34 | – |
| COc1ccccc1-c1nc(CCN2CCCC2)cn1-c1ccc(Cl)cc1 [Compound 6] | – | 6.00 |
| COc1ccccc1-c1nc(Cc2nc3ccccc3[nH]2)cn1-c1ccc(Cl)cc1 [Compound 2, 2-[1-(4-Chloro-phenyl)-2-(2-methoxy-phenyl)-1H-imidazol-4-ylmethyl]-1H-benzoimidazole] | – | 6.76 |
